The test system of experiment [1] is ABUTH = velvetleaf (Abutilon theophrasti). Kind of experiment: General postemergence herbicidal activity, velvetleaf. The experiment is classed as in vivo. Particulars: Abutilon theophrasti, post-emergence, 336 h; post-emergent, 140 g ai/ha, visual score after 14 days (0 no injury, 100 complete kill). As to the method: Seeds or nutlets of the desired test plant species were planted in Sun Gro MetroMix® 306 planting mixture, which typically has a pH of 6.0 to 6.8 and an organic matter content of about 30 percent, in plastic pots with a surface area of 64 square centimeters. When required to ensure good germination and healthy plants, a fungicide treatment and/or other chemical or physical treatment was applied. The plants were grown for 7-21 days in a greenhouse with an approximate 15 hour photoperiod which was maintained at about 23-29° C. during the day and 22-28° C. during the night. Nutrients and water were added on a regular basis and supplemental lighting was provided with overhead metal halide 1000-Watt lamps as necessary. The plants were employed for testing when they reached the first or second true leaf stage.
A weighed amount, determined by the highest rate to be tested, of each test compound was placed in a 25 mL glass vial and was dissolved in 4 mL of a 97:3 v/v (volume/volume) mixture of acetone and dimethyl sulfoxide (DMSO) to obtain concentrated stock solutions. […] The concentrated stock solutions obtained were diluted with 20 mL of an aqueous mixture containing acetone, water, isopropyl alcohol, DMSO, Atplus 411F crop oil concentrate, and Triton X-155 surfactant in a 48.5:39:10:1.5:1.0:0.02 v/v ratio to obtain spray solutions containing the highest application rates. Additional application rates were obtained by serial dilution of 12 mL of the high rate solution into a solution containing 2 mL of 97:3 v/v (volume/volume) mixture of acetone and dimethyl sulfoxide (DMSO) and 10 mL of an aqueous mixture containing acetone, water, isopropyl alcohol, DMSO, Atplus 411F crop oil concentrate, and Triton X-155 surfactant in a 48.5:39:10:1.5:1.0:0.02 v/v ratio to obtain ½×, ¼×, ⅛× and 1/16× rates of the high rate. Compound requirements are based upon a 12 mL application volume at a rate of 187 L/ha. Formulated compounds were applied to the plant material with an overhead Mandel track sprayer equipped with a 8002E nozzles calibrated to deliver 187 L/ha over an application area of 0.503 square meters at a spray height of 18 inches (43 cm) above the average plant canopy height. Control plants were sprayed in the same manner with the solvent blank.
The treated plants and control plants were placed in a greenhouse as described above and watered by sub-irrigation to prevent wash-off of the test compounds. After 14 days, the condition of the test plants as compared with that of the untreated plants was determined visually and scored on a scale of 0 to 100 percent where 0 corresponds to no injury and 100 corresponds to complete kill.
By applying the well-accepted probit analysis as described by J. Berkson in Journal of the […], 48, 565 (1953) and by D. Finney in “Probit Analysis” Cambridge University Press (1952), the above data can be used to calculate GR50 and GR80 values, which are defined as growth reduction factors that correspond to the effective dose of herbicide required to kill or control 50 percent or 80 percent, respectively, of a target plant.

In experiment [2] the test system is CYPDI = Cyperus difformis. In words: Herbicidal activity in transplanted paddy rice, Cyperus difformis. The experiment is classed as in vivo. Particulars: 480 h, water-injected paddy, after 20-22 days; for pest or weed control at 17.5 g/ha: 17.5 g ai/ha; for pest or weed control at 140 g/ha: 140 g ai/ha; for pest or weed control at 35 g/ha: 35 g ai/ha; for pest or weed control at 70 g/ha: 70 g ai/ha. The protocol:
Weed seeds or nutlets of the desired test plant species were planted in puddled soil (mud) prepared by mixing a non-sterilized mineral soil (28 percent silt, 18 percent clay, and 54 percent sand, with a pH of about 7.3 to 7.8 and an organic matter content of about 1.0 percent) and water at a ratio of 100 kg of soil to 19 L of water. The prepared mud was dispensed in 250 mL aliquots into 480 mL non-perforated plastic pots with a surface area of 91.6 square centimeters leaving a headspace of 3 centimeters in each pot. Rice seeds were planted in Sun Gro MetroMix® 306 planting mixture, which typically has a pH of 6.0 to 6.8 and an organic matter content of about 30 percent, in plastic plug trays. Seedlings at the second or third leaf stage of growth were transplanted into 650 mL of mud contained in 960 mL non-perforated plastic pots with a surface area of 91.6 square centimeters 4 days prior to herbicide application. The paddy was created by filling the 3 centimeter headspace of the pots with water. When required to ensure good germination and healthy plants, a fungicide treatment and/or other chemical or physical treatment was applied. The plants were grown for 4-14 days in a greenhouse with an approximate 14 hour photoperiod which was maintained at about 29° C. during the day and 26° C. during the night. Nutrients were added as Osmocote (17:6:10, N:P:K+minor nutrients) at 2 g (grams) per cup. Water was added on a regular basis to maintain the paddy flood, and supplemental lighting was provided with overhead metal halide 1000-Watt lamps as necessary. The plants were employed for testing when they reached the second or third true leaf stage. A weighed amount, determined by the highest rate to be tested, of each test compound was placed in a 120 mL glass vial and was dissolved in 20 mL of acetone to obtain concentrated stock solutions. […] The concentrated stock solutions obtained were diluted with 20 mL of an aqueous mixture containing 0.01% Tween 20 (v/v). Application rates of ½×, ¼×, ⅛× and 1/16× of the high rate were obtained by injecting an appropriate amount of the stock solution into the aqueous layer of the paddy. Control plants were treated in the same manner with the solvent blank. The treated plants and control plants were placed in a greenhouse as described above and water was added as needed to maintain a paddy flood. After 20-22 days, the condition of the test plants as compared with that of the untreated plants was determined visually and scored on a scale of 0 to 100 percent where 0 corresponds to no injury and 100 corresponds to complete kill.

Consider `COC(=O)c1nc(-c2ccc(Cl)c(OC)c2Cl)nc(N)c1Cl` [Compound 6, 6-Amino-5-chloro-2-(2,4-dichloro-3-methoxyphenyl)pyrimidine-4-carboxylic acid methyl ester], for which the pest or weed control at 140 g/ha in experiment [1] is 95%. For the same molecule, the pest or weed control at 17.5 g/ha in experiment [2] was 90%.
Consider `COC(=O)c1nc(-c2ccc(Cl)c(OCC(F)F)c2F)nc(N)c1Cl` [Compound 10, 6-Amino-5-chloro-2-[4-chloro-3-(2,2-difluoroethoxy)-2-fluorophenyl]-pyrimidine-4-carboxylic acid methyl ester], for which the results for the pest or weed control at 140 g/ha in experiment [1] and in experiment [2] were 75% and 95%, respectively.
The molecule `COC(=O)c1nc(-c2ccc(Cl)c(N(C)C)c2F)nc(N)c1Cl` [Compound 8, 6-Amino-5-chloro-2-(4-chloro-3-dimethylamino-2-fluorophenyl)pyrimidine-4-carboxylic acid methyl ester] came in with a pest or weed control at 140 g/ha in experiment [1] of 100%. The molecule also gave a pest or weed control at 35 g/ha in experiment [2] of 95%.
In turn, `COC(=O)c1nc(-c2c(F)cc(Cl)c(OC)c2F)nc(N)c1Cl` [Compound 2, 6-amino-5-chloro-2-(4-chloro-2,6-difluoro-3-methoxy-phenyl)pyrimidine-4-carboxylic acid methyl ester] displayed a pest or weed control at 140 g/ha in experiment [1] of 90%. The same molecule gave a pest or weed control at 70 g/ha in experiment [2] of 75%.
Molecule `COC(=O)c1nc(-c2ccc3c(c2F)OCO3)nc(N)c1Cl` [Compound 9, 6-Amino-5-chloro-2-(4-fluorobenzo[1,3]dioxol-5-yl)pyrimidine-4-carboxylic acid methyl ester] had a pest or weed control at 140 g/ha in experiment [1] of 95%. The pest or weed control at 35 g/ha in experiment [2] was found to be 100%.
Turning to `COC(=O)c1nc(-c2ccc(Cl)c(OC)c2F)nc(N)c1Cl` [Compound 3, 6-amino-5-chloro-2-(4-chloro-2-fluoro-3-methoxyphenyl)-pyrimidine-4-carboxylic acid methyl ester], the pest or weed control at 140 g/ha in experiment [1] worked out at 100%. Also, in experiment [2], the pest or weed control at 17.5 g/ha was 99%.
Regarding `COC(=O)c1nc(-c2ccc(Cl)c(OC)c2F)nc(N)c1Br` [Compound 13, 6-amino-5-bromo-2-(4-chloro-2-fluoro-3-methoxyphenyl)-pyrimidine-4-carboxylic acid methyl ester], the pest or weed control at 140 g/ha in experiment [1] stood at 100%. Besides, the pest or weed control at 70 g/ha in experiment [2] was determined as 85%.
Regarding `CCOc1c(Cl)ccc(-c2nc(N)c(Cl)c(C(=O)OC)n2)c1F` [Compound 1, 6-amino-5-chloro-2-(4-chloro-3-ethoxy-2-fluorophenyl)-pyrimidine-4-carboxylic acid methyl ester], the pest or weed control at 140 g/ha in experiment [1] was 100%. In experiment [2], this molecule showed a pest or weed control at 17.5 g/ha of 95%.
For `COC(=O)c1nc(-c2ccc(Cl)c(C(F)F)c2F)nc(N)c1Cl` [Compound 7, 6-Amino-5-chloro-2-(4-chloro-3-difluoromethyl-2-fluorophenyl)pyrimidine-4-carboxylic acid methyl ester], the pest or weed control at 140 g/ha is 80% in experiment [1] and 100% in experiment [2].

(Values after US9199943B2, “2-(poly-substituted aryl)-6-amino-5-halo-4-pyrimidinecarboxylic acids and their use as herbicides” (Dow AgroSciences, LLC., priority 2006, dated 2015).)
